The values that follow come from patent US11918590B2 (Intas Pharmaceuticals Ltd., priority 2021, dated 2024).

Data set [1] can be described thus: Solubility study of clozapine at various pH and solvent. The data set is classed as physicochemical.
The conditions of data set [2]: cited from earlier work.
[3] abbreviates: pH 4.0 to 4.5 of Acetate buffer.

Values after ≈ are worked out from the molar mass of the structure shown. Like-named read-outs stand apart in the source and are kept apart here.

As for `CN1CCN(C2=Nc3cc(Cl)ccc3Nc3ccccc32)CC1` [Micronized, Clozapine], the “Solubility” value turned out to be 28727 µg/mL (≈ 87900 µM) in data set [1] (0.1N Hydrochloric acid), 31 µg/mL (≈ 94.9 µM) in data set [1] (Purified Water), 4773 µg/mL (≈ 14600 µM) in data set [1] (setting [3]) and 121 µg/mL (≈ 370 µM) in data set [1] (pH 6.8 of Phosphate buffer).
Take `CN1CCN(C2=Nc3cc(Cl)ccc3Nc3ccccc32)CC1` [Clozapine, 8-chloro-11-(4-methyl-1-piperazinyl)-5H-dibenzo [b,e][1,4] diazepine]: in data set [2], the solubility in water result was “very slightly soluble in water”.
For `CN1CCN(C2=Nc3cc(Cl)ccc3Nc3ccccc32)CC1` [Un-micronized, Clozapine], the “Solubility” value in data set [1] (0.1N Hydrochloric acid) stood at 418 µg/mL (≈ 1280 µM); in data set [1] (setting [3]) it was 730 µg/mL (≈ 2230 µM); in data set [1] (phosphate buffer, pH 6.8, aqueous buffer, thermodynamic from solid, pH 6.8 of Phosphate buffer, read-out: Solubility) it was 100 µg/mL (≈ 306 µM); in data set [1] (purified water, water, thermodynamic from solid, Purified Water, read-out: Solubility), 40 µg/mL (≈ 122 µM).
